“And” between values parts separate entries of the source, which are not always exact repeats. Identical values can stand only once. Like-named read-outs stand apart in the source and are kept apart here.
How the values were obtained:
HRH2 [1] = conditions: Log [Histamine]
HRH2 [2] = target: HRH2 (Homo sapiens, UniProt P25021); conditions: Log [Histamine]
HRH2 [3] = conditions: Gαs, HRH2 wt
5-HT4R = format: cell-based, human; conditions: Gαs, 5-HT4R wt
5-HT2AR [4] = format: cell-based, human; conditions: 5-HT2AR-KOR, Log [Drug]
5-HT2AR [5] = format: cell-based, human; conditions: 5-HT2AR-KOR, Log [5-HT]
kappa receptor = target: kappa receptor; set-up: method as in Thomas JB et al., 2001; conditions: previously reported; ref Thomas JB et al., 2001; read-out: Ki, kappa receptor binding assay; cited from earlier work
KOR [6] = target: T1, KOR (Homo sapiens, UniProt P41145); assay: cAMP inhibition assay (GloSensor); format: cell-based
T1 sequence (P41145 whole entry): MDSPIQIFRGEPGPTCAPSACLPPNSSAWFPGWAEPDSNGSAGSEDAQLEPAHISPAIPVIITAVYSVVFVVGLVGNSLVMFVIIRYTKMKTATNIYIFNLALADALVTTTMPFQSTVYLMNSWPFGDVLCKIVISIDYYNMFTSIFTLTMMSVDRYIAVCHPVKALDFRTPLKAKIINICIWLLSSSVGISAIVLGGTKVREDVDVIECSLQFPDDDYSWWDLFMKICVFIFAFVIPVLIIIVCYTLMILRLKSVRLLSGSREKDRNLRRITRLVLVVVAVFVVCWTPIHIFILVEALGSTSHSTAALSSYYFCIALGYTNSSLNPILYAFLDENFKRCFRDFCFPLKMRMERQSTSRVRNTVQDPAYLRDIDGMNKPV

human wild-type KOR = human wild-type KOR (Homo sapiens, UniProt P41145); assay: [3H]-JDTic association and dissociation assays; format: binding
Sequence of human wild-type KOR (P41145 whole entry): as above
Protocol: Radioligand dissociation and association assays were performed in parallel using the same concentrations of radioligand, membrane preparations and binding buffer (50 mM Tris, 10 mM MgCl2, 0.1 mM EDTA, 0.1% BSA, pH 7.4).
Time points spanned 1 min to 6 h, depending on experimental conditions and radioligand. The association (Kon) and dissociation (Koff) values were calculated using the Prism model:
Association kinetics to obtain kon5 Y=Ymax*(1−e^−kob*X).
Dissociation—one phase exponential decay to obtain koff6 Y=YO−NS*e^−K*X,

GPR111 = assay: BRET assay GPR111 / GPR111-KOR and Nb6, basal state; format: cell-based
ETA = target: T2, ETA (Homo sapiens, UniProt P25101); format: cell-based; conditions: wild-type ETA
T2 construct: expressed in transfected cells; host or cells: HEK 293T
T2 sequence (P25101 21-427): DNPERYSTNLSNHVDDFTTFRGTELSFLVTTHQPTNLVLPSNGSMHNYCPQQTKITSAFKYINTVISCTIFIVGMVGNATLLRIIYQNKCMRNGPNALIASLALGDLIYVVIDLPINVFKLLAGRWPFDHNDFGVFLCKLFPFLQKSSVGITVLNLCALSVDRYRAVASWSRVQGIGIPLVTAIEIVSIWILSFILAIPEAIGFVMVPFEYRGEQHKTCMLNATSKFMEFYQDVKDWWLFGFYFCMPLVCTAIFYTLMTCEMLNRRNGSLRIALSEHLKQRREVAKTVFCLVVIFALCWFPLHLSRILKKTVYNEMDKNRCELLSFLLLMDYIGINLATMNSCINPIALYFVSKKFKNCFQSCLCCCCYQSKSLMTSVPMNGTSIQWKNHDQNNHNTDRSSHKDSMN

[7] = target: T3, human KOR containing C-terminal Renilla luciferase (RLuc8) (human, UniProt P41145); assay: FRET or BRET; kinetic BRET in HEK 293T cells co-expressing KOR-Rluc and Nb6-mVenus or Nb39-mVenus; 10 µM Sal A, then 10 µM JDTic added at the indicated times; t1/2 from one phase exponential decay; conditions: partners not purified
T3 construct: kappa opioid receptor, human, wild type; also called KOR-Rluc; kappa opioid receptor; source: HEK 293T, co-transfected, in live cells; not shown: RLuc8, C-terminal, kept
T3 sequence (P41145 whole entry): as the sequence (P41145 whole entry) above

human KOR [8] = target: human KOR (Homo sapiens, UniProt P41145, L253A); assay: BRET assay, KOR-Rluc and Nb6-mVenus: Nb6 binding / agonist-induced dissociation; format: cell-based
human KOR [9] = target: human KOR (Homo sapiens, UniProt P41145, R274A); assay: as above; format: cell-based
human KOR [10] = target: T4, human KOR (Homo sapiens, UniProt P41145, R263A); assay: as above; format: cell-based
T4 construct: expressed in transfected cells; host or cells: HEK 293T
T4 sequence (P41145 whole entry R263A): as the sequence (P41145 whole entry) above, with R263A counted along it

human KOR [11] = target: T5, human KOR (Homo sapiens, UniProt P41145, R257A); assay: as above; format: cell-based
T5 construct: expressed in transfected cells; host or cells: HEK 293T
T5 sequence (P41145 whole entry R257A): as the sequence (P41145 whole entry) above, with R257A counted along it

KOR [12] = target: T1, KOR; assay: as above; format: cell-based
human KOR [13] = target: T6, human KOR (Homo sapiens, UniProt P41145, D266L); assay: as above; format: cell-based
T6 construct: expressed in transfected cells; host or cells: HEK 293T
T6 sequence (P41145 whole entry D266L): as the sequence (P41145 whole entry) above, with D266L counted along it

human KOR [14] = target: human KOR (Homo sapiens, UniProt P41145, R270A); assay: as above; format: cell-based
human KOR [15] = target: T7, human KOR (Homo sapiens, UniProt P41145, R270M); assay: as above; format: cell-based
T7 construct: expressed in transfected cells; host or cells: HEK 293T
T7 sequence (P41145 whole entry R270M): as the sequence (P41145 whole entry) above, with R270M counted along it

human KOR [16] = target: human KOR (Homo sapiens, UniProt P41145, D266A); assay: as above; format: cell-based
human KOR [17] = target: T8, human KOR (Homo sapiens, UniProt P41145, R271A); assay: as above; format: cell-based
T8 construct: expressed in transfected cells; host or cells: HEK 293T
T8 sequence (P41145 whole entry R271A): as the sequence (P41145 whole entry) above, with R271A counted along it

5-HT2AR [18] = target: T9, 5-HT2AR (Homo sapiens, UniProt P28223); format: cell-based; conditions: wild-type 5-HT2AR
T9 construct: expressed in transfected cells; host or cells: HEK 293T
T9 sequence (P28223 whole entry): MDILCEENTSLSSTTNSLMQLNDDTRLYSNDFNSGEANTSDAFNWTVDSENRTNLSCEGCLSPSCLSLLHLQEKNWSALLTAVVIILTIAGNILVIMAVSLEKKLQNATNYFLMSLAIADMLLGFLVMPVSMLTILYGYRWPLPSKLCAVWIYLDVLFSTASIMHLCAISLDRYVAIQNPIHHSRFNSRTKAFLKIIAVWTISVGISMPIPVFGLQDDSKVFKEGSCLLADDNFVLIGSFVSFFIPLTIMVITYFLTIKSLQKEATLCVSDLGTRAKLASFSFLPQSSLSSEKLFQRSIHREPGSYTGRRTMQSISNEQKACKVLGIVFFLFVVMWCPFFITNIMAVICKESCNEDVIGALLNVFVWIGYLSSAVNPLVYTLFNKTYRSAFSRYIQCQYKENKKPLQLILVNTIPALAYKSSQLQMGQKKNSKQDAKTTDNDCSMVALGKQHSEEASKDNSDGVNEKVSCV

GPR149 = format: cell-based; conditions: GPR149-KOR and Nb6
GPR151 [19] = format: cell-based; conditions: GPR151-KOR and Nb6
GPR151 [20] = target: T10, GPR151 (Homo sapiens, UniProt Q8TDV0); format: cell-based; conditions: GPR151 and Nb6
T10 construct: expressed in transfected cells; host or cells: HEK 293T
T10 sequence (Q8TDV0 1-419): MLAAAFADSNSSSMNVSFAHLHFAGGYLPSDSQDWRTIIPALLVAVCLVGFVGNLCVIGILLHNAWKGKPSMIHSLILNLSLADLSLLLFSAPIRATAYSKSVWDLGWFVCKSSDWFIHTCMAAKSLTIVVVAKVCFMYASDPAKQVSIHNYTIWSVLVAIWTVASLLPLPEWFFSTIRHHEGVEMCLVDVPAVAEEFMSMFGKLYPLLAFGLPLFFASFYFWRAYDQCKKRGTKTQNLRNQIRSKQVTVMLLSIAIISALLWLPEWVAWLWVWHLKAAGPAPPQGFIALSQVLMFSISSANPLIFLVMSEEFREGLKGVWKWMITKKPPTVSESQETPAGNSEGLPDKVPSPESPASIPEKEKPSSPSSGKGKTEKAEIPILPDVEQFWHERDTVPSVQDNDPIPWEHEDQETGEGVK

[21] = read-out: EC50, G protein activation

Sequence of HRH2 (Homo sapiens, UniProt P25021) (P25021 whole entry): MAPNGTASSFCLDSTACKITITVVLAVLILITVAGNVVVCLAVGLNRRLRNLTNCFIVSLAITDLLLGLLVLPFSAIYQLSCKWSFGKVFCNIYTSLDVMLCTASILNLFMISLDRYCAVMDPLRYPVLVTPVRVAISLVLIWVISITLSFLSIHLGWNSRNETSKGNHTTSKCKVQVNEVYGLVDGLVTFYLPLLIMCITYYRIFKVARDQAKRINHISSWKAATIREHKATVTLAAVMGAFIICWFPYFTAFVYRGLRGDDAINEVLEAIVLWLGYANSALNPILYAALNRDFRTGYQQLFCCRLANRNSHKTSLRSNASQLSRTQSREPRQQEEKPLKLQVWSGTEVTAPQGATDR

## NCCc1c[nH]cn1 [Histamine]
HRH2 [1]; M -4
  HRH2-KOR (Figure S10): 5.219 and 6.229 and 8.754
HRH2 [1]; M -8
  HRH2-KOR (Figure S10): 49.1583 and 70.3704
HRH2 [1]; M -9
  HRH2-KOR (Figure S10): 71.8855 and 67.8451 and 91.0774
HRH2 [1]; M -10
  HRH2-KOR (Figure S10): 90.0673 and 96.633 and 108.754
HRH2 [1]; M -11
  HRH2-KOR (Figure S10): 95.6229 and 98.6532 and 105.724
HRH2 [2]; M -4
  HRH2 wt (Figure S10): 0.035 and 0.037 and 0.032
HRH2 [2]; M -5
  HRH2 wt (Figure S10): 0.04 and 0.037 and 0.043
HRH2 [2]; M -6
  HRH2 wt (Figure S10): 0.037 and 0.041 and 0.043
HRH2 [2]; M -7
  HRH2 wt (Figure S10): 0.041 and 0.036 and 0.042
HRH2 [2]; M -8
  HRH2 wt (Figure S10): 0.038 and 0.039
HRH2 [2]; M -9
  HRH2 wt (Figure S10): 0.037 and 0.039 and 0.042
HRH2 [2]; M -10
  HRH2 wt (Figure S10): 0.036 and 0.04 and 0.031
HRH2 [2]; M -11
  HRH2 wt (Figure S10): 0.029 and 0.038 and 0.037
HRH2 [3]
  pEC50 ± SEM, G protein activation: 7.64 ± 0.10
HRH2 [3]; [21]
  EC50: 23.2 nM

## NCCc1c[nH]c2ccc(O)cc12 [5-HT]
5-HT4R
  pEC50 ± SEM, G protein activation: 8.55 ± 0.13
5-HT4R; [21]
  EC50: 2.85 nM
5-HT2AR [4]; M = -5
  Net BRET G protein activation, source data Figure 5c: 4.77 and 5.378 and 5.642
5-HT2AR [4]; M = -7
  Net BRET G protein activation, source data Figure 5c: 5.149 and 9.509 and 8.117
5-HT2AR [4]; M = -8
  Net BRET G protein activation, source data Figure 5c: 64.908 and 45.488 and 55.524
5-HT2AR [4]; M = -9
  Net BRET G protein activation, source data Figure 5c: 89.3557 and 61.3025 and 75.4781
5-HT2AR [4]; M = -10
  Net BRET G protein activation, source data Figure 5c: 101.409 and 99.4572 and 101.001
5-HT2AR [4]; M = -11
  Net BRET G protein activation, source data Figure 5c: 93.2037 and 102.876 and 98.9921
5-HT2AR [4]; M = -12
  Net BRET G protein activation, source data Figure 5c: 99.8736 and 92.5765 and 96.7631
5-HT2AR [5]; M = -4
  Net BRET receptor and Nb6, source data Figure 5b: 4.555 and 4.236 and 2.584
5-HT2AR [5]; M = -6
  Net BRET receptor and Nb6, source data Figure 5b: 27.0627 and 18.3518 and 18.7135
5-HT2AR [5]; M = -7
  Net BRET receptor and Nb6, source data Figure 5b: 54.7274 and 50.7842 and 46.0256
5-HT2AR [5]; M = -8
  Net BRET receptor and Nb6, source data Figure 5b: 79.692 and 81.7337 and 74.4168
5-HT2AR [5]; M = -9
  Net BRET receptor and Nb6, source data Figure 5b: 96.2676 and 98.9652 and 90.7989
5-HT2AR [5]; M = -10
  Net BRET receptor and Nb6, source data Figure 5b: 102.206 and 99.7037 and 92.1127
5-HT2AR [5]; M = -11
  Net BRET receptor and Nb6, source data Figure 5b: 99.4094 and 102.177 and 98.4133

## CC(C)[C@@H](CN1CC[C@@](C)(c2cccc(O)c2)[C@@H](C)C1)NC(=O)[C@H]1Cc2ccc(O)cc2CN1 [JDTic, (3R)-7-hydroxy-N-((1S)-1-[[(3R,4R)-4-(3-hydroxyphenyl)-3,4-dimethyl-1-piperidinyl]methyl]-2-methylpropyl)-1,2,3,4-tetrahydro-3-isoquinolinecarboxamide]
Kappa receptor
  Ki: 0.3 nM
KOR [6]
  activity at KOR, Gi-mediated inhibition of cAMP production: potent inverse agonist
Human wild-type KOR
  change of binding affinity (Ki) or equilibrium constant (Kd) with KOR in the presence of Nb6 or Nb39: no significant changes
  t1/2 increase, KOR preincubated with Nb6 compared to untreated KOR: ~ 2 fold
Human wild-type KOR; KOR + Nb6
  BMAX ± SEM: 468 ± 54 CPM
Human wild-type KOR; KOR + Nb39
  BMAX ± SEM: 423 ± 59 CPM
Human wild-type KOR; KOR wt
  BMAX ± SEM: 412 ± 46 CPM

B1: Nb6-mVenus (VHH)
VHH: QVQLQESGGGLVQAGESLRLSCAASGTIFRLYDMGWYRRVSGNQRELVASITSGGSTKYGDSVKGRFTISRDNAKNTVYLQMSSLKPEDTAVYYCNAEYRTGIWEELLDGWGQGTQVTVSS
notes: as the chain of m2, nanobody chain of PDB 6VI4; source: HEK 293T, co-transfected, in live cells; not shown: mVenus, C-terminal, kept
GPR111
  BRET receptor and Nb6 in basal state, source data Figure 5e: 96.3553 and 106.675 and 85.5388 and 88.3471
ETA
  interaction with Nb6 in the BRET assay: did not display measurable interaction
[7]
  t1/2 of the decrease in Nb6-KOR BRET after the agonist Sal A: 0.833 ± 0.167 min
  t1/2 of the increase of the BRET ratio after JDTic (following Sal A): 1.25 ± 0.2 min
Human KOR [8]
  Net BRET, KOR mutations with Nb6, source data Figure 3b: 1.189 and 1.193 and 1.2037 and 1.27 and 1.206 and 1.301
Human KOR [9]
  Net BRET, KOR mutations with Nb6, source data Figure 3b: 1.098 and 1.114 and 1.1115 and 1.116 and 1.123 and 1.128
Human KOR [10]
  Net BRET, KOR mutations with Nb6, source data Figure 3b: 0.9862 and 0.9845 and 1.038 and 1.045 and 1.021 and 1.043
Human KOR [11]
  Net BRET, KOR mutations with Nb6, source data Figure 3b: 1.007 and 0.9978 and 1.013 and 1.028 and 1.043 and 1.085
KOR [12]
  Net BRET, KOR mutations with Nb6, source data Figure 3b: 1.21 and 1.208 and 1.235 and 1.249 and 1.256 and 1.272
Human KOR [13]
  Net BRET, KOR mutations with Nb6, source data Figure 3b: 0.05761 and 0.05183 and 0.0517 and 0.0557 and 0.08302 and 0.08918
Human KOR [14]
  Net BRET, KOR mutations with Nb6, source data Figure 3b: 0.07102 and 0.06841 and 0.07532 and 0.07378 and 0.08027 and 0.09204
Human KOR [15]
  Net BRET, KOR mutations with Nb6, source data Figure 3b: 0.05686 and 0.05346 and 0.04737 and 0.04878 and 0.05049 and 0.05323
Human KOR [16]
  Net BRET, KOR mutations with Nb6, source data Figure 3b: 0.1429 and 0.1064 and 0.08886 and 0.09293
Human KOR [17]
  Net BRET, KOR mutations with Nb6, source data Figure 3b: 1.2246 and 1.2 and 1.237 and 1.199 and 1.227 and 1.2457
5-HT2AR [18]
  interaction with Nb6 in the BRET assay: did not display measurable interaction
GPR149
  BRET receptor and Nb6 in basal state, source data Figure 5e: 100.397 and 94.0625 and 97.7156 and 109.725
GPR151 [19]
  BRET receptor and Nb6 in basal state, source data Figure 5e: 96.9506 and 102.894 and 103.581 and 99.837
GPR151 [20]
  BRET receptor and Nb6 in basal state, source data Figure 5e: 4.933 and 5.929 and 5.0734 and 5.659

— article PMC7052193, “Nanobody-enabled monitoring of kappa opioid receptor states” (Nature Communications, 2020)
